Results published in ChEMBL document CHEMBL1132789, “Synthesis and estrogen receptor binding affinities of novel pyrrolo[2,1,5-cd]indolizine derivatives” (Bioorg Med Chem Lett, 2000).

Biological target: Estrogen receptor (Homo sapiens, UniProt Q92731+P03372)
Description: Inhibitory activity against Estrogen receptor by displacement of [3H]17-beta-estradiol in ER-rich cytosol from rabbit uterine tissue

| IC50 [nM] | SMILES |
| --- | --- |
| 9.5 | CCc1c(-c2ccc(O)cc2)c2ccc3cccc1n32 |
| 0.9 | CCc1c(-c2ccc(O)cc2)c2ccc3cc(O)cc1n32 |
| 28 | Cc1c(-c2ccc(O)cc2)c2ccc3cccc1n32 |
| 12 | CCc1c(-c2ccc(O)cc2)c2ccc3ccc(CO)c1n32 |
| 180 | CCc1c(-c2ccccc2)c2ccc3c(O)ccc1n32 |
| 5 | CCCc1c(-c2ccc(O)cc2)c2ccc3cccc1n32 |
| 1300 | CCc1c(-c2ccccc2)c2ccc3cc(O)cc1n32 |
| 700 | Oc1ccc(-c2cc3cccc4ccc2n43)cc1 |
| 370 | CCc1c(-c2cccc(O)c2)c2ccc3cccc1n32 |
| 8 | CC(C)c1c(-c2ccc(O)cc2)c2ccc3cccc1n32 |
| 950 | CCCC(C)C1C(c2ccc(O)cc2)=c2ccc3n2C1C=CC=3 (stereo unspecified) |

| SMILES | IC50 [nM] |
| --- | --- |
| CCc1c(-c2ccc(O)cc2)c2ccc3c(O)ccc1n32 | 0.9 |
| Oc1ccc(C2=c3ccc4n3C3C(=CC=4)CCCCC23)cc1 (stereo unspecified) | 25 |
| Oc1ccc(C2=c3ccc4n3C(C=CC=4)C2CCc2ccccc2)cc1 (stereo unspecified) | 180 |
| Oc1ccc(C2=c3ccc4n3C3C(=CC=4)CCCC23)cc1 (stereo unspecified) | 30 |
| CCCCC1C(c2ccc(O)cc2)=c2ccc3n2C1C=CC=3 (stereo unspecified) | 200 |
